Series [1] has as its system Boophilus microplus. The series is described as follows: Boophilus microplus test (BOOPMI injection). In kind it is in vivo. The conditions noted are these: 20 μg/animal, injected into the abdomen, after 7 days. The essentials: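 Compound dissolved in DMSO, diluted with water and injected into the tick abdomen; ticks kept in a climatized room. Fertile egg deposition assessed after 7 days; 100% means no tick laid fertile eggs.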

In series [2] the test system is Ctenocephalides felis. In words: Ctenocephalides felis oral (CTECFE). The settings on record: 100 ppm in citrated cattle blood, after 2 days. Format: in vivo. The essentials:
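Twenty unfed adult fleas fed through parafilm on citrated cattle blood containing compound, diluted from a DMSO concentrate (10 mg per 0.5 ml). Kill % scored after 2 days (100% = all dead, 0% = none).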

The test system of series [3] is Lucilia cuprina larvae. The series is described as follows: Lucilia cuprina test (LUCICU). In kind it is in vivo. The conditions noted are these: 100 ppm, treated horse meat, after 2 days. The essentials: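 Horse meat treated with compound diluted in water from DMSO concentrate, then populated with larvae. Mortality scored after 2 days as percent kill, 100% meaning all larvae dead.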

The test system of series [4] is larvae of the mustard beetle (Phaedon cochleariae). The series is described as follows: Phaedon test (PHAECO spray treatment). In kind it is in vivo. The settings on record: after 7 days. The method in brief:
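Chinese cabbage leaf discs were sprayed with compound formulated in acetone/dimethyl formamide plus alkylaryl polyglycol ether emulsifier, diluted in emulsifier-containing water to the desired concentration. After drying, discs were infested with mustard beetle larvae. Mortality (%) was scored after 7 days, where 100% means all larvae killed.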

The test system of series [5] is caterpillars of the army worm (Spodoptera frugiperda). In words: Spodoptera frugiperda test (SPODFR spray treatment). In kind it is in vivo. The conditions noted are these: after 7 days. The essentials: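 Maize leaf discs sprayed with compound in acetone/DMF with alkylaryl polyglycol ether emulsifier, diluted in emulsifier-containing water to the test concentration. Once dry, discs were infested with army worm caterpillars. Mortality scored after 7 days as % activity (100% = all caterpillars killed).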

The test system of series [6] is greenhouse red spider mite (Tetranychus urticae). The series is described as follows: Tetranychus test, OP resistant (TETRUR spray treatment). In kind it is in vivo. The conditions noted are these: 100 g/ha, after 6 days. As for the experimental part: Solvents: 78.0 parts by weight of acetone • • 1.5 parts by weight of dimethyl formamide Emulsifier: 0.5 part by weight of alkylaryl polyglycol ether To produce a suitable preparation of active compound, 1 part by weight of active compound is mixed with the stated amounts of solvent and emulsifier, and the concentrate is diluted with emulsifier-containing water to the desired concentration. Discs of bean leaves (Phaseolus vulgaris) which are infested by all stages of the greenhouse red spider mite (Tetranychus urticae) are sprayed with an active compound preparation of the desired concentration. After 6 days, the activity in % is determined. 100% means that all spider mites have been killed; 0% means that none of the spider mites has been killed. The test was carried out and evaluated as described in Example B.7.

The subject of series [7] is adult Musca domestica. The series is described as follows: Musca domestica test (MUSCDO). Format: in vivo. The settings on record: treated sponge. The method in brief: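 Compound taken up in DMSO and diluted with water to test concentration, applied to a sponge in vessels then stocked with adult houseflies. Kill % scored after the set period; 100% = all flies dead, 0% = none.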

Series [8] in a line: logP by HPLC on reversed-phase columns (C 18), EU Guideline 79/831 Annex V.A8. In kind it is physicochemical. The conditions noted are these: ** LC-MS in the neutral range, pH 7.8, 0.001 molar aqueous ammonium bicarbonate and acetonitrile.

Each structure is given as a SMILES string.

In the case of `FC(F)(F)c1cc(Cl)cc(-c2c(C(F)(F)F)nn(-c3ncccn3)c2N=Cc2ccccc2)c1` [Example 1-12], the “activity (no deposition of fertile eggs)” value in series [1] is recorded as 100%. For the same compound, the kill in series [2], in series [3] and in series [7] (20 ppm) was 100% throughout. For the same compound, the “activity (beetle larvae killed)” value in series [4] (4 g/ha) and in series [4] (100 g/ha) was 100% each time. The “activity (caterpillars killed)” value in series [5] (20 g/ha) and in series [5] (100 g/ha) was 100% throughout. Further, in series [6], the “activity (spider mites killed)” value is given as 100%. In addition, the logP in series [8] is reported as 4.92**.
For the compound `COc1ccc(C=Nc2c(-c3cc(Cl)cc(C(F)(F)F)c3)c(C(F)(F)F)nn2-c2ncccn2)cc1` [Example 1-17], the “activity (no deposition of fertile eggs)” value in series [1] is given as 100%. Besides, the kill in series [2], in series [3] and in series [7] (20 ppm) was 100% in each case. Further, the “activity (beetle larvae killed)” value in series [4] (100 g/ha) is 100%. Also, the “activity (caterpillars killed)” value in series [5] (100 g/ha) was determined as 100%. Further, in series [6], the “activity (spider mites killed)” value was 100%. Besides, the logP in series [8] was 4.98**.
In the case of `COc1ccc(C=Nc2c(-c3cc(Cl)cc(C(F)(F)F)c3)c(C(F)(F)C(F)F)nn2-c2ncccn2)cc1` [Example 1-21], the “activity (no deposition of fertile eggs)” value in series [1] came to 100%. Besides, the kill in series [2], in series [3] and in series [7] (100 ppm) was 100% in each case. The “activity (beetle larvae killed)” value in series [4] (100 g/ha) came to 100%. Also, the “activity (caterpillars killed)” value in series [5] (100 g/ha) was found to be 100%. In series [6], the “activity (spider mites killed)” value is reported as 90%. In addition, in series [8], the logP is on record as 3.69**.
Regarding `FC(F)(F)c1cc(Cl)cc(-c2c(C(F)(F)C(F)(F)F)nn(-c3ncccn3)c2N=Cc2ccc(Cl)cc2)c1` [Example 1-40], in series [1], the “activity (no deposition of fertile eggs)” value was 100%. Also, the kill in series [2], in series [3] and in series [7] (100 ppm) was 100% in each case. In addition, in series [4] (100 g/ha), the “activity (beetle larvae killed)” value was found to be 100%. The “activity (caterpillars killed)” value in series [5] (100 g/ha) came to 100%. For the same compound, the “activity (spider mites killed)” value in series [6] came to 100%. Also, in series [8], the logP is listed as 5.93**.
Regarding `COc1ccc(C=Nc2c(-c3cc(Cl)cc(C(F)(F)F)c3)c(C(F)(F)C(F)(F)F)nn2-c2ncccn2)cc1` [Example 1-41], the “activity (no deposition of fertile eggs)” value in series [1] stood at 100%. Moreover, the kill in series [2], in series [3] and in series [7] (100 ppm) was 100% throughout. Moreover, the “activity (beetle larvae killed)” value in series [4] (100 g/ha) was 100%. Moreover, in series [5] (100 g/ha), the “activity (caterpillars killed)” value was determined as 100%. In series [6], the “activity (spider mites killed)” value is on record as 100%. Moreover, the logP in series [8] is 5.4**.
In the case of `CC(C)OC=Nc1c(-c2cc(Cl)cc(C(F)(F)F)c2)c(C(F)(F)C(F)(F)F)nn1-c1ncccn1` [Example 1-44], the “activity (beetle larvae killed)” value in series [4] (100 g/ha) is recorded as 100%. Moreover, the “activity (caterpillars killed)” value in series [5] (100 g/ha) was 100%. In series [6], the “activity (spider mites killed)” value is on record as 100%. Moreover, in series [8], the logP is reported as 5.31**.
In the case of `COc1nccnc1-n1nc(C(F)(F)C(F)F)c(-c2cc(Cl)cc(C(F)(F)F)c2)c1N=COC(C)C` [Example 2-20], in series [1], the “activity (no deposition of fertile eggs)” value is given as 100%. The kill in series [3] is 100%; in series [7] (100 ppm), 80%. For the same compound, the “activity (spider mites killed)” value in series [6] came out at 100%. Moreover, the logP in series [8] is 5.1**.

The values above are taken from patent publication US8629273B2, “Diazinylpyrazolyl compounds” (Bayer Intellectual Property GmbH, priority 2009, dated 2014).
